Tested on: passive cutaneous reaction mediated by Ig G antibodies
Test: Passive cutaneous anaphylaxis in the rat (PCR), inhibition of Ig G PCR after oral administration
Assay type: in vivo
Settings: male Wistar rats, 4 hour sensitization, 1 mg ovalbumen challenge
Method: Passive cutaneous anaphylaxis in the rat (PCR)
Passive cutaneous anaphylaxis in the rat was carried out in male Wistar rats weighing 180-200 g which were sensitized by intradermal injection into four sites on shaved backs to produce a passive cutaneous reaction mediated by Ig G antibodies (a 4 hour sensitization following injection of antiserum heated at 56° C. for one hour). Antigen challenge was carried out in the same way with 1 mg of ovalbumen together with 0.5 ml of 1% Evans blue dye solution being injected intravenously and 30 minutes later, the animals were killed and the severity and area of each blue spot was scored when viewed from the reverse side of the skin.

Row | SMILES | % inhibition of Ig G PCR (1 mg/kg) | % inhibition of Ig G PCR (10 mg/kg) | % inhibition of Ig G PCR (0.1 mg/kg)
1 | O=C(O)c1cnc2cnc3ccccc3n2c1=O [Example 1, 1-oxo-1H-pyrimido[1,2-a]quinoxaline-2-carboxylic acid] | 9.9% | 50.3% | –
2 | O=C(Nc1nnn[nH]1)c1cnc2cnc3ccccc3n2c1=O [Example 2, N-(5-Tetrazolyl)-1-oxo-1H-pyrimido[1,2-a]quinoxaline-2-carboxamide] | 29.9% | 48.6% | –
3 | O=C(O)c1cnc2c(=O)[nH]c3ccccc3n2c1=O [Example 8, 1,5-dioxo-1,6-dihydropyrimido[1,2-a]quinoxalin-2-carboxylic acid] | 52.4% | 94.1% | 40.5%
4 | O=C(Nc1nn[nH]n1)c1cnc2c(=O)[nH]c3ccccc3n2c1=O [Example 9] | 23% | 35% | 19%
5 | Cn1c(=O)c2ncc(C(=O)O)c(=O)n2c2ccccc21 [Example 10] | 15.6% | 20.5% | –
